Reference: ChEMBL document CHEMBL1201862, “PubChem BioAssay data set” (2004)
Each block holds one molecule with its values, some of them ahead of it. Activity calls are given as the source filed them.

What was measured:
[1] = biological target: T1, Heat shock factor protein 1 (Mus musculus, UniProt P38532); test: decrease of HSF1-responsive luciferase luminescence – cell-based, NIH3T3, dose retest, confirmation (AID 2382); assay type: functional;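 also: NIH3T3 fibroblasts with HSF1-driven luciferase reporter stressed by proteasome inhibitor MG132; luminescence from HSF1-driven luciferase expression after 8 hours of MG132 stress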
T1 sequence (P38532 whole entry): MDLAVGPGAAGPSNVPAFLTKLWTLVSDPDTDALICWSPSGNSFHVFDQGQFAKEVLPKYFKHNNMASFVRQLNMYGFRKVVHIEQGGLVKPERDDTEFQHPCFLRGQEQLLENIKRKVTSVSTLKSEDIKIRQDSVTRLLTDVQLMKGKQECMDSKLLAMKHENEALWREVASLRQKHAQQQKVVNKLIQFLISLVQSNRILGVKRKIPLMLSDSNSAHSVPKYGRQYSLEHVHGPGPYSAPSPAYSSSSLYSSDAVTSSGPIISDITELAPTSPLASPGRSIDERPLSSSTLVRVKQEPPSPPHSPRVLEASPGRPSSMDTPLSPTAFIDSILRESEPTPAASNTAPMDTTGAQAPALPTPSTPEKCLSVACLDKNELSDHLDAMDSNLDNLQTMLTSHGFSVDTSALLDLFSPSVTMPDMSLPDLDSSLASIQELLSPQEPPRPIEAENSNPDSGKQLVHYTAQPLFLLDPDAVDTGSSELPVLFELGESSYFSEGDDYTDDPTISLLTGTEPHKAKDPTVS

[2] = COV434 cell viability loss – plate reader, dry powder, SA7, cytotoxicity control for PAX8 inhibitor project, dose response (AID 743145); assay type: functional, cell-based
[3] = PAX5 cellular inhibition readout – cell-based, plate reader, dry powder samples, selectivity assay for PAX8 inhibitor project, dose response (AID 743047); assay type: functional;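 also: HEK293 cells carrying a Pax5 driven CD19 promoter luciferase reporter; potency of inhibitors that lower reporter luminescence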
[4] = viability loss in HEK293 cells – cell-based, plate reader, cherry-picked samples, cytotoxicity control, dose response (AID 743446); assay type: functional
[5] = COV362 cell viability loss – plate reader, dry powder, SA12, cytotoxicity control for PAX8 inhibitor project, dose response (AID 743144); assay type: functional, cell-based
[6] = blockade of melanocortin 4 receptor signaling – cell-based, plate reader, cherry pick, counter-screen for LGR2 antagonist project, dose response (AID 743444); assay type: functional;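 also: transfected HEK 293 cells stimulated with alpha-MSH peptide; potency of inhibitors of the alpha-MSH evoked signal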
[7] = IGROV1 cell killing – plate reader, dry powder samples, PAX8 inhibitor project, dose response (AID 743043); assay type: functional, cell-based; settings: IGROV-1
[8] = blockers of bursicon-stimulated LGR2 cAMP reporter – cell-based, HEK293, CRE-luciferase reporter, cherry pick, set 2, dose response (AID 743343); assay type: functional;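 also: transfected cells were stimulated with diluted bursicon conditioned medium after compound addition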
[9] = OV-90 cell viability loss – plate reader, dry powder, SA8, PAX8 inhibitor project, dose response (AID 743149); assay type: functional, cell-based
[10] = inhibitors acting on PAX2 in cells – cell-based, plate reader, dry powder samples, selectivity assay for PAX8 inhibitor project, dose response (AID 743048); assay type: functional;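 also: HEK293 cells carrying a WT1 promoter luciferase reporter driven by expressed Pax2; potency is for inhibition of Pax2 driven reporter signal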
[11] = biological target: T2, Microphthalmia-associated transcription factor (Homo sapiens, UniProt O75030); test: reducers of TRPM1 reporter luminescence, concentration series – cell-based, SK-MEL-5, cherry-picked, set 3, MITF inhibitor project, dose response (AID 493073); assay type: functional;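 also: SK-MEL-5 melanoma cells with luciferase driven by the MITF target TRPM1 promoter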
T2 sequence (O75030 whole entry): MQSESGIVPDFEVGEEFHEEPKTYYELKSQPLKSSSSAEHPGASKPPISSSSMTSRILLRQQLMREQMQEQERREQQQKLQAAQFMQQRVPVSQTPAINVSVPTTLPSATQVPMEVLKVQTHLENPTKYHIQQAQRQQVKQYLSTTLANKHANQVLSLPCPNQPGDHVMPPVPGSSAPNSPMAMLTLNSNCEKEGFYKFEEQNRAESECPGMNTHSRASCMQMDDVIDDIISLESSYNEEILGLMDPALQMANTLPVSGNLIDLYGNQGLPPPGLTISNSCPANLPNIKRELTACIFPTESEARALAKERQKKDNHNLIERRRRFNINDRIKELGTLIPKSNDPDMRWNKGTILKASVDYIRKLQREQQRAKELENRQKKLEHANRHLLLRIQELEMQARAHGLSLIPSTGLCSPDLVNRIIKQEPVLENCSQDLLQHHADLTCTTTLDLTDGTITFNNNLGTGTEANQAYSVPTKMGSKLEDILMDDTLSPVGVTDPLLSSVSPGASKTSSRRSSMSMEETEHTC

A-375 [12] = test: proliferation inhibition in MITF-low A375 cells – cell-based, cherry-pick samples, set 2, counter-screen for MITF modulator project, dose response (AID 540335); assay type: functional; settings: Homo sapiens
[13] = toxicity toward HepG2 liver cells – cell-based, plate reader, cherry-pick, antagonist series, cytotoxicity control, dose response (AID 743416); assay type: functional
Paired box protein Pax-8 = Paired box protein Pax-8 (Homo sapiens, UniProt Q06710); test: PAX8 transcriptional activity inhibition in RMG-I – RMG-I cells, luciferase, cherry-pick, dose response (AID 687027); assay type: functional, cell-based;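 also: luciferase reporter driven by Pax8 target thyroperoxidase promoter measured by SteadyGlo luminescence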
[14] = PAX8-dependent cell viability loss – plate reader, dry powder, dose response (AID 743049); assay type: functional, cell-based
A-375 [15] = test: MITF: Counter assay: A375 proliferation Measured in Cell-Based System Using Plate Reader - 2084-03_Inhibitor_Dose_DryPowder_Activity. [Related pubchem assays (depositor defined):AID488944]; assay type: functional; settings: Homo sapiens
Jurkat = test: blockers of NF-kB activation in T cells – Jurkat, luciferase reporter, luminescence, B- and T-cell, dose response (AID 489004); assay type: functional, cell-based; settings: Homo sapiens;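 also: NF-kB luciferase reporter Jurkat cells stimulated with PMA plus ionomycin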
[16] = HEK-293T viability loss, compound-treated – cell-based, uHTS hits, cytotoxicity control for B/T-cell NF-kB inhibitor project, dose response (AID 489019); assay type: functional;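 also: IC50 reflects cytotoxicity as loss of cell viability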
[17] = biological target: sn-1-specific diacylglycerol lipase ABHD11 (Mus musculus, UniProt Q8K4F5); test: Late stage assay provider results from the probe development effort to identify inhibitors of LYPLA1 and LYPLA2: Gel-based Activity-Based Protein Profiling (ABPP) IC50 for off-target ABHD11. [Related pubchem assays (depositor defined):AID2174, AID2202, AID2203, AID2233, AID504482, AID504498, AID504505, AID504507, AID504510, AID504520, AID504522, AID504892]; assay type: functional
[18] = system: Streptococcus sp. 'group A'; test: Streptococcus pyogenes SK(-)GAS viability under kanamycin – luminescence, BacTiterGlo, confirmation, counter-screen for streptokinase expression inhibitor project, dose response (AID 1900); assay type: functional, organism-based; settings: read-out: EC50
Large T antigen = Large T antigen (Simian virus 40, UniProt P03070); assay type: functional, Betapolyomavirus macacae;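 also: Confirmatory-stage PubChem screen for compounds that inhibit SV40 T antigen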
Hexokinase HKDC1 = biological target: T3, Hexokinase HKDC1 (Homo sapiens, UniProt Q2TB90); test: activation of HKDC1 glucose phosphorylation – biochemical, W721R variant, dose response (AID 504730); assay type: functional
T3 sequence (Q2TB90 whole entry): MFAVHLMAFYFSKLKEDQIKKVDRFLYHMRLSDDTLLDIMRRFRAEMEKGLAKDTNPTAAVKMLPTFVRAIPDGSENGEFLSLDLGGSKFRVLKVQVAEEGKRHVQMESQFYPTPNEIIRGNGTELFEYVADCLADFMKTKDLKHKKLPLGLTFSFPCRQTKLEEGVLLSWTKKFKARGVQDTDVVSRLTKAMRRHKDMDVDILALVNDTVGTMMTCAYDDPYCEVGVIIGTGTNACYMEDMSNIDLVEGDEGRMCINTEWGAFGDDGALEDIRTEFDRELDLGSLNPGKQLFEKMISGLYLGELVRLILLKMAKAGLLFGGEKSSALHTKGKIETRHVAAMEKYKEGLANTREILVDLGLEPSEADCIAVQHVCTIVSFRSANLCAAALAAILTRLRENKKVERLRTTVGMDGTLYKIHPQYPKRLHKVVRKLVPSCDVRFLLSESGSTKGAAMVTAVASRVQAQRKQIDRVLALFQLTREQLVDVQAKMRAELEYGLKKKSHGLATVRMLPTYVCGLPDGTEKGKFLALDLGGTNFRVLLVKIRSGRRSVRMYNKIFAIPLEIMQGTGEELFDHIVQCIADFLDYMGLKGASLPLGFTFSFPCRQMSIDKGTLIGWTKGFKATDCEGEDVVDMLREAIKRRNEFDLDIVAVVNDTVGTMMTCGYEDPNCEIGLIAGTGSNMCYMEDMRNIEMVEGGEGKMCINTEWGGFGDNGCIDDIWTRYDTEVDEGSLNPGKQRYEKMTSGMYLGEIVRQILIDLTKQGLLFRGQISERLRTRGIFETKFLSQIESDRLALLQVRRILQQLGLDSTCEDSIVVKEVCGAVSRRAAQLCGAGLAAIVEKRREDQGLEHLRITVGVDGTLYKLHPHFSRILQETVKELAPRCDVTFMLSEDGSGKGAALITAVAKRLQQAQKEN

[19] = biological target: 1-acylglycerol-3-phosphate O-acyltransferase ABHD5/Perilipin-5 (Homo sapiens, UniProt Q00G26+Q8WTS1); test: Luminescence-based biochemical high throughput dose response assay for inhibitors of the interaction of the lipase co-activator protein, abhydrolase domain containing 5 (ABHD5) with perilipin-5 (MLDP; PLIN5) (2K validation set). [Related pubchem assays (depositor defined):AID493035, AID493241]
[20] = biological target: Glucose-6-phosphate 1-dehydrogenase (Homo sapiens, UniProt P11413); test: inhibition of Homo sapiens G6PD, dose series – biochemical, fluorescence, selectivity assay for P. falciparum G6PD inhibitor project, dose response (AID 504792); assay type: functional
Streptococcus = test: GAS UMAA2166 growth inhibition – luminescence, BacTiterGlo, counter-screen for streptokinase expression inhibitor project, dose response (AID 1915); assay type: functional, organism-based;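 also: potency for reduction of bacterial viability or growth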
Beta-arrestin-1 = Beta-arrestin-1 (Homo sapiens, UniProt P49407); test: beta-arrestin/AP2 interaction blockers, potency – biochemical, cherry pick 1, beta2-adaptin appendage, flow cytometry, dose response (AID 588783); assay type: functional
Perilipin-1/ABHD5 = Perilipin-1/ABHD5 (Homo sapiens, UniProt O60240+Q8WTS1); test: Luminescence-based biochemical high throughput dose response assay for inhibitors of the interaction of the lipase co-activator protein, abhydrolase domain containing 5 (ABHD5) with perilipin-1 (PLIN1) (2K validation set). [Related pubchem assays (depositor defined):AID493027, AID493057]
[21] = biological target: Eukaryotic translation initiation factor 4E (Mus musculus, UniProt P63073); test: blockers of eIF4G binding by eIF4E – biochemical, TR-FRET, dose response (AID 855); assay type: functional;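 also: potency for disrupting eIF4E binding to eIF4GI seen as loss of FRET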
Hexokinase-1 = biological target: T4, Hexokinase-1 (Homo sapiens, UniProt P19367); test: HK1 enzyme activation by HKDC1 hits – biochemical, selectivity assay for HKDC1 activator project, dose response (AID 504762); assay type: functional
T4 sequence (P19367 whole entry): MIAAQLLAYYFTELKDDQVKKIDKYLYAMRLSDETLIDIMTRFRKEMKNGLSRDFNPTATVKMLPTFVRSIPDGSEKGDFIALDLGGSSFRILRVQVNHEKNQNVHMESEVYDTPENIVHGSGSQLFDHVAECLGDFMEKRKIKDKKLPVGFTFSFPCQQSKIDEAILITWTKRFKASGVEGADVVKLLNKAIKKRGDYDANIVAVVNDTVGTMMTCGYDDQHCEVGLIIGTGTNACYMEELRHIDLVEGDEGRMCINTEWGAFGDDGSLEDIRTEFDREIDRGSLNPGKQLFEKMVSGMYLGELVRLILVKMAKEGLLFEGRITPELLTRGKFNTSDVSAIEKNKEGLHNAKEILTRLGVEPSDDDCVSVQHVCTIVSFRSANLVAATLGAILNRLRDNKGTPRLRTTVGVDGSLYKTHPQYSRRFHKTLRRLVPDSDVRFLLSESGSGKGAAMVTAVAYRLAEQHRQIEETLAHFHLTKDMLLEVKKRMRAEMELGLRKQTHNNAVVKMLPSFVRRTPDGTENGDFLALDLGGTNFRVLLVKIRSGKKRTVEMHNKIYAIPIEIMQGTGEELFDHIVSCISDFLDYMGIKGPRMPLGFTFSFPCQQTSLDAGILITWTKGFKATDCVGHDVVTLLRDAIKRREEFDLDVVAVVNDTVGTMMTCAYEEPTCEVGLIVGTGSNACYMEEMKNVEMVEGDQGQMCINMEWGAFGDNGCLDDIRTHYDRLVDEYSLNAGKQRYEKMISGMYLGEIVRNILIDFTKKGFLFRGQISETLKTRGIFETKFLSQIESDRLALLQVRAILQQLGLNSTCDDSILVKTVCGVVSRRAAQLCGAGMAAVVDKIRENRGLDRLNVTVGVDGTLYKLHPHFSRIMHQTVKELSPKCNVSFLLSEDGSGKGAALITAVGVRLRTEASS

[22] = biological target: Phosphoethanolamine/phosphocholine phosphatase (Homo sapiens, UniProt Q8TCT1); test: SAR assay for compounds that inhibit PHOSPHO1. [Related pubchem assays (depositor defined):AID1545, AID1565, AID1574]
[23] = biological target: Voltage-gated inwardly rectifying potassium channel KCNH2 (Homo sapiens, UniProt Q12809); settings: Potency;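 also: confirmatory quantitative high-throughput screen measuring inhibition of hERG channel activity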
Voltage-gated inwardly rectifying potassium channel KCNH2, sequence (Q12809 whole entry): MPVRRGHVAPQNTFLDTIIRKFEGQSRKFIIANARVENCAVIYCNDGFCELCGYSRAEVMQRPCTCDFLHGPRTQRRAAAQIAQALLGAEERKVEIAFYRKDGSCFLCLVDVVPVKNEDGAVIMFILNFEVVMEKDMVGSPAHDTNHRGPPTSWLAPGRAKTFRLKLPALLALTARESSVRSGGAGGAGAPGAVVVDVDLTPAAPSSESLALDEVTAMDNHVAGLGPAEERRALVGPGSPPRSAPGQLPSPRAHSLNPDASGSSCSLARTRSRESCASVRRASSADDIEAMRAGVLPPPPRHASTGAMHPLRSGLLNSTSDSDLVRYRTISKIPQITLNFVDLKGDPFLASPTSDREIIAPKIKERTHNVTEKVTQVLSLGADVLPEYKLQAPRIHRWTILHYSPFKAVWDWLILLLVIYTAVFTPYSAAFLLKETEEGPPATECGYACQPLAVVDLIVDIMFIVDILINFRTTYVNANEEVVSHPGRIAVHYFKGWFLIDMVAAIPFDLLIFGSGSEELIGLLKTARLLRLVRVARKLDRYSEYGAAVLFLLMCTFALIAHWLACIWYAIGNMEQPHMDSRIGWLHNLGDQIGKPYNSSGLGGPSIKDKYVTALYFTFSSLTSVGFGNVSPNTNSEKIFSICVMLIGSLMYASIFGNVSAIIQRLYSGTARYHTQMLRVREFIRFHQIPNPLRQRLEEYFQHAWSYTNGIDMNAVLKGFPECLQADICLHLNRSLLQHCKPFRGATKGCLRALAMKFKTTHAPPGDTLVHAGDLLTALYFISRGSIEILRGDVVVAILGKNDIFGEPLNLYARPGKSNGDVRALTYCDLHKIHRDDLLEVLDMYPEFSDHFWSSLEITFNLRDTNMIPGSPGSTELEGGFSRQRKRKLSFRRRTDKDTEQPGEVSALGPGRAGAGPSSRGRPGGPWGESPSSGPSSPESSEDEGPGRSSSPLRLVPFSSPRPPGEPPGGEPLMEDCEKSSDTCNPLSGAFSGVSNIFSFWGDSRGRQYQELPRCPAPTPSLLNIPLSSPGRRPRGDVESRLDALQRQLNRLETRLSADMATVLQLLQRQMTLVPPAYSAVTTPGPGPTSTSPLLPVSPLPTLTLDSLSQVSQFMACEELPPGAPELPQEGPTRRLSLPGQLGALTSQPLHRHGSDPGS

Perilipin-1/ABHD5, sequence (Q8WTS1 whole entry, the tested form may be a part): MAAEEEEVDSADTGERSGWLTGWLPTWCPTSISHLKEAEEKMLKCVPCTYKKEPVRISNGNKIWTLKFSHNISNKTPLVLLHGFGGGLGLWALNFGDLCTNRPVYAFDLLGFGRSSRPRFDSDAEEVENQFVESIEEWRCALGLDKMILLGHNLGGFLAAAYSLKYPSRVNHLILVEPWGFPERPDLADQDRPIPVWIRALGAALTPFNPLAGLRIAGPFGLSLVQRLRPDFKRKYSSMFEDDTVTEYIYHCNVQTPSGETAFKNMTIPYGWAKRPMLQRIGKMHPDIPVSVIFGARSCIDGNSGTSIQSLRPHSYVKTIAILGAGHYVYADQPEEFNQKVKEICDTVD
Perilipin-1/ABHD5, sequence (O60240 whole entry, the tested form may be a part): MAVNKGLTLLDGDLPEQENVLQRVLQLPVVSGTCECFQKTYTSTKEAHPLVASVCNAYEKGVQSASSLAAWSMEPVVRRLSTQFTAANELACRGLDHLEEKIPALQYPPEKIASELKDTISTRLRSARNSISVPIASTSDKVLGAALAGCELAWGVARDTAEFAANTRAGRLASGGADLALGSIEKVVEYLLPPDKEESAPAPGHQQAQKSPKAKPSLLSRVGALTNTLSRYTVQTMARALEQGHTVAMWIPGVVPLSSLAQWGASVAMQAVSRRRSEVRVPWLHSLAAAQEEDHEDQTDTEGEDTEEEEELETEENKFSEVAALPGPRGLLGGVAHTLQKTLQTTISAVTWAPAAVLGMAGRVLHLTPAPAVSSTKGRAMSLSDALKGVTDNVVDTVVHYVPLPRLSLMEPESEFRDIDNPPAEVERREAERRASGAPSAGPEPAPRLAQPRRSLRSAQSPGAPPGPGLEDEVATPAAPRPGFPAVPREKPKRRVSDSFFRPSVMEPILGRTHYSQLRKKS
sn-1-specific diacylglycerol lipase ABHD11, sequence (Q8K4F5 whole entry): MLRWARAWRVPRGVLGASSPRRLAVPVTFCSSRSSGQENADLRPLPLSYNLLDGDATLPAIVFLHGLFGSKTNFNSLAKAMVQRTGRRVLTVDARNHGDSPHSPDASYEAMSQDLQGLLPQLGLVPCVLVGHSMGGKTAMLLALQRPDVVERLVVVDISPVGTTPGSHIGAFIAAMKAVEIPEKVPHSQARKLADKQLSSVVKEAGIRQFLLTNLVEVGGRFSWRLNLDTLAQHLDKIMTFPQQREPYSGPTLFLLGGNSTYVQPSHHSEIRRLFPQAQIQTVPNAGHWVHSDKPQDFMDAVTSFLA
Glucose-6-phosphate 1-dehydrogenase, sequence (P11413 whole entry): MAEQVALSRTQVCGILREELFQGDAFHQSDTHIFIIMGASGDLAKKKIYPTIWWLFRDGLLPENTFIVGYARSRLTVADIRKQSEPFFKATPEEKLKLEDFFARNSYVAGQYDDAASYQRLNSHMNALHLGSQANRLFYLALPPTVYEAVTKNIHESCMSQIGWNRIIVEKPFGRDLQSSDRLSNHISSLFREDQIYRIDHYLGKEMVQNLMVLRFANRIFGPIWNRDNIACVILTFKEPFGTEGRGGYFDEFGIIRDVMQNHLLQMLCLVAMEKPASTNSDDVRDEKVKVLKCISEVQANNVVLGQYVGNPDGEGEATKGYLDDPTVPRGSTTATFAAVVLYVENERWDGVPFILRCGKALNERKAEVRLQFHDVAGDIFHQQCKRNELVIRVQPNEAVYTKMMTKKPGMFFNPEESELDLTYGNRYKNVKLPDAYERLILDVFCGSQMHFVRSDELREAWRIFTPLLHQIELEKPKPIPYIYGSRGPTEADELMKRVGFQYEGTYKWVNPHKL
Large T antigen, sequence (P03070 whole entry): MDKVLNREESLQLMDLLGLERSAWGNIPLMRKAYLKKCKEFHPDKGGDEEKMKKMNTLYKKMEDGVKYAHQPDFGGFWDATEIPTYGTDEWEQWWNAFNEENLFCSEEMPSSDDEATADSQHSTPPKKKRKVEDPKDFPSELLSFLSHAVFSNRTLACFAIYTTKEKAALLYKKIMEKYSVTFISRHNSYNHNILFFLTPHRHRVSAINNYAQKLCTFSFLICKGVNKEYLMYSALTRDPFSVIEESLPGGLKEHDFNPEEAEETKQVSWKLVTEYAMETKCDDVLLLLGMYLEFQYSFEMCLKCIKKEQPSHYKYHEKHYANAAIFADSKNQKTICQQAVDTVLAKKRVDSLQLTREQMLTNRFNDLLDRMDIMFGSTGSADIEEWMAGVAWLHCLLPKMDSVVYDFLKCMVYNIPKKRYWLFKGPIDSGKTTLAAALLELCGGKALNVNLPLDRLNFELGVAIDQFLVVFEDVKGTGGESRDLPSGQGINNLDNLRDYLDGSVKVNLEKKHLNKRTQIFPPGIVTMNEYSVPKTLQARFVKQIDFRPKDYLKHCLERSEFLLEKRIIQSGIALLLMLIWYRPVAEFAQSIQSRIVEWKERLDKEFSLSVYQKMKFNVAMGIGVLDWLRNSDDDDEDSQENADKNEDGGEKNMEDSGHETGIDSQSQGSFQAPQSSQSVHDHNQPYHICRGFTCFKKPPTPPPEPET
Eukaryotic translation initiation factor 4E, sequence (P63073 whole entry): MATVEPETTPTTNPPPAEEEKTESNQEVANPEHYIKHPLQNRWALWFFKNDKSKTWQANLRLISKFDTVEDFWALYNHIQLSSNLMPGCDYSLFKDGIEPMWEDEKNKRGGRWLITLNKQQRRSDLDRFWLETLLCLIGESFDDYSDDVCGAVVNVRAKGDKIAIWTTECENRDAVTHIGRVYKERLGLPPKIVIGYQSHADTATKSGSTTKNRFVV
Paired box protein Pax-8, sequence (Q06710 whole entry): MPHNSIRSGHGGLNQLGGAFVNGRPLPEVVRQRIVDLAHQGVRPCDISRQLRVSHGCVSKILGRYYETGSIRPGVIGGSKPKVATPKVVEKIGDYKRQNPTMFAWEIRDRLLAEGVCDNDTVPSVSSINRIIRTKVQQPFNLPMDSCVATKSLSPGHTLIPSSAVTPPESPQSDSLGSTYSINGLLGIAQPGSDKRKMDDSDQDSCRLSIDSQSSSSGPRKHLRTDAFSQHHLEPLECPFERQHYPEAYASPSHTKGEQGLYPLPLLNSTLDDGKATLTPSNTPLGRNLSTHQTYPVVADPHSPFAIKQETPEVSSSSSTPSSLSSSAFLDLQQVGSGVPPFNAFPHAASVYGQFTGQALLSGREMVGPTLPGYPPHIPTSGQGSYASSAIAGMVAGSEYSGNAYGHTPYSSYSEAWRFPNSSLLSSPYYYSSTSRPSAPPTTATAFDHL
Beta-arrestin-1, sequence (P49407 whole entry, the tested form may be a part): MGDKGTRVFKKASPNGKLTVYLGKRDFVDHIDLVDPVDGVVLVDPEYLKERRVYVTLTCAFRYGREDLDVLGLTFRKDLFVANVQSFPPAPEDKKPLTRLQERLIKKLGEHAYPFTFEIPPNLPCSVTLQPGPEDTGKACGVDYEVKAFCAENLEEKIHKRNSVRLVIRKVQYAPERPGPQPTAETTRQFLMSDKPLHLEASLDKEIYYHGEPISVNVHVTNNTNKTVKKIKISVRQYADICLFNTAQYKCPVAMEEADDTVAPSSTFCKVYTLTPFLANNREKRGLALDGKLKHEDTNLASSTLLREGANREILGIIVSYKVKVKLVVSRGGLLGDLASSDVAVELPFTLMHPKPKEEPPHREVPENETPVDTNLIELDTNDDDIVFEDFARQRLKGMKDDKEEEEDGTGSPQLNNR
Phosphoethanolamine/phosphocholine phosphatase, sequence (Q8TCT1 whole entry): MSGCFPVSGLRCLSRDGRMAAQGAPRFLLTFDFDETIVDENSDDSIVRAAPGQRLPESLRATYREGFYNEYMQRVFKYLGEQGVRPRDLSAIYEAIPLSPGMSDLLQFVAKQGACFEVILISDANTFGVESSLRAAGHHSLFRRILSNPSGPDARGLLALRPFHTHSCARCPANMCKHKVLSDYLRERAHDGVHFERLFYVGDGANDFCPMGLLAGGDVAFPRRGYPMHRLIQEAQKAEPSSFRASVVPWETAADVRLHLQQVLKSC

Structure (SMILES): O=C(/C=C/c1ccccc1)Nc1cccc(C(=O)O)c1
EC50 [1]: 1.73 µM (active)
AC50 [2]: > 100 µM (inactive)
AC50 [3]: 2.67 µM (active)
AC50 [4]: > 52 µM (inactive)
AC50 [5]: 77.2 µM (active)
AC50 [6]: 0.592 µM (active)
AC50 [7]: 49 µM (active)
AC50 [8]: 0.833 µM (active)
AC50 [9]: > 100 µM (inactive)
AC50 [10]: 2.07 µM (active)
AC50 [11]: 1.52 µM (active)
AC50 (A-375 [12]): > 35 µM (active)
AC50 [13]: > 52 µM (inactive)
AC50 (Paired box protein Pax-8): 4.06 µM (active)
AC50 [14]: 32.2 µM (active)
AC50 (A-375 [15]): > 35 µM (active)
IC50 (Jurkat): 1.4 µM (active)
IC50 [16]: > 80 µM (inactive)

IC50 [17]: 0.01 µM (active)
Structure (SMILES): CC(C)(C)C1CCN(C(=O)n2ncc(C(O)(c3ccccc3)c3ccccc3)n2)CC1

Structure (SMILES): O=c1c2ccccc2[se]n1-c1ccccc1 [EBSELEN]
EC50 [18]: 1.1 µM (active)
IC50 (Large T antigen): 13.9 µM (active)
EC50 (Hexokinase HKDC1): 38.8 µM (inactive)
IC50 [19]: 1.1 µM (active)
IC50 [20]: 13.2 µM (active)
EC50 (Streptococcus): 0.975 µM (active)
IC50 (Beta-arrestin-1): 1.52 µM (active)
IC50 (Perilipin-1/ABHD5): 3.41 µM (active)
IC50 [21]: 1.15 µM (active)
EC50 (Hexokinase-1): 41.9 µM (inactive)
IC50 [22]: 0.111 µM (active)
AC50 [23]: 35.5 µM (inconclusive)
